Data: paper PMC5355877, “The development of novel LTA4H modulators to selectively target LTB4 generation” (Scientific Reports, 2017)
“Also recorded” adds a separate entry of the source. Like-named read-outs stand apart in the source and are kept apart here.

Assays:
[1] = biological target: T1, LTA4H epoxide hydrolase activity (LTB4 generation) (Mus musculus, UniProt P24527); experiment: LTA4H epoxide hydrolase activity: LTB4 generation by A23187-treated murine bone marrow neutrophils (EIA); assay type: cell-based
T1 construct: endogenous in cells; host or cells: murine bone marrow neutrophils
T1 sequence (P24527 1-611): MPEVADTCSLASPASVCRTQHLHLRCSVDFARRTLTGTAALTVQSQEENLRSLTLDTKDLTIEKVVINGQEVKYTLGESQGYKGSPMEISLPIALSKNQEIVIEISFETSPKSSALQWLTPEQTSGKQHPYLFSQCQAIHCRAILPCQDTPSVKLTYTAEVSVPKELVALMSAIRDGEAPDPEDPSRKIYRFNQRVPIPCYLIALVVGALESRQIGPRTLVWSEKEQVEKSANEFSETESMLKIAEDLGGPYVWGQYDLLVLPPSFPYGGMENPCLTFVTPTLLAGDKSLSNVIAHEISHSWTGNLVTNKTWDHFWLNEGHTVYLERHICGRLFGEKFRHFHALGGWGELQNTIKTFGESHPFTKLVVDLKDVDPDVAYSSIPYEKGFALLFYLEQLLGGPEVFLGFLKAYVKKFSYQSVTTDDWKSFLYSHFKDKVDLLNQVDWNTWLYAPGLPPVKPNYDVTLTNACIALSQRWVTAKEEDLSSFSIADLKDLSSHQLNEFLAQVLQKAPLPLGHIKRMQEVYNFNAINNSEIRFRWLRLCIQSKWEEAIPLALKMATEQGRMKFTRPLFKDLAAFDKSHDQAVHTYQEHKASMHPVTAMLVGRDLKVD
Procedure: To isolate murine bone marrow neutrophils, the femur and the tibia from both hind legs were removed and freed of soft tissue attachments, and the extreme distal tip of each extremity cut off. HBSS containing 15 mM EDTA and 30 mM HEPES was forced through the bone with a syringe. After dispersing cell clumps and passage through a […] sieve (BD labware, New Jersey), red blood cells were lysed by resuspending pellets in ACK buffer (for 3 minutes at room temperature) before centrifugation (800 × g, 5 min) and washing with HBSS. The cell suspension was centrifuged (800 × g, 5 min, 4 °C) and resuspended in RPMI.
1% DMSO was used as a control. Cells were incubated for 20 minutes at 37 °C, and the reaction was terminated by centrifugation (600 × g, 5 min, 4 °C). Supernatants were removed and stored at −80 °C for subsequent LTB4 analysis. The concentration of LTB4 generated in the epoxide hydrolase activity assay was assayed using an EIA, according to manufacturer’s directions (R&D systems, Minneapolis, MN). Test compounds were assayed in a blinded manner by an investigator during determination of effect on LTA4H epoxide hydrolase activity.

[2] = biological target: T2, recombinant human LTA4H (aminopeptidase, PGP substrate) (Homo sapiens, UniProt P09960); experiment: LTA4H aminopeptidase activity: PGP degradation by recombinant human LTA4H; assay type: biochemical
T2 construct: purchased Cayman Chemicals
T2 sequence (P09960 1-611): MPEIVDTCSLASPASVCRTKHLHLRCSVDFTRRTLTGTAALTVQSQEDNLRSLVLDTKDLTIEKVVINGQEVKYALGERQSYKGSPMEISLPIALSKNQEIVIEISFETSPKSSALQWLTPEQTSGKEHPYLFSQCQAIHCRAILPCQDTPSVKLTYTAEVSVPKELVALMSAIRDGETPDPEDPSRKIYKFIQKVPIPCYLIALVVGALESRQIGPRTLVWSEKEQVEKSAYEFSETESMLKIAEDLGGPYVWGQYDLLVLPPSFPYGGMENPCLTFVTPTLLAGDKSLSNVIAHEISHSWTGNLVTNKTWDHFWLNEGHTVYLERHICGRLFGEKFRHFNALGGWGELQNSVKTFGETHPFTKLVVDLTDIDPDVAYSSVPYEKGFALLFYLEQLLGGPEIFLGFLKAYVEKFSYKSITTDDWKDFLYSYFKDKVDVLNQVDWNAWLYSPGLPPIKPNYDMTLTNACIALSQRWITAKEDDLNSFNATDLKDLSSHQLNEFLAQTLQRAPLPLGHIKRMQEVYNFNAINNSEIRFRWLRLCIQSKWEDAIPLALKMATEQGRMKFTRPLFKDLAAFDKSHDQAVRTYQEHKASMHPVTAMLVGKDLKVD
Procedure: (§1) For peptide quantification in serum, PGP and AcPGP were measured using a MDS Sciex API-4000 spectrometer (Applied Biosystems, Foster City, CA) equipped with a Shimadzu HPLC (Columbia, MD). For peptide quantification from degradation experiments, PGP and AcPGP were measured using a Thermo Accela Pump and Autosampler coupled to a Thermo TSQ Quantum Access. […] Peak area was measured, and PGP/AcPGP peptide concentrations were calculated using a relative standard curve method as previously described.
(§2) Mouse serum (diluted 1/10 in PBS) or recombinant human LTA4H (0.1 μg/ml; Cayman Chemicals, Michigan, USA) were incubated with 0.4 mM PGP at 37 °C in 5% CO2 for varying periods of time. Concentrations of PGP remaining were subsequently quantified by ESI-LC/MS/MS (as discussed above) by comparison with PGP standards. The percentage of peptide degraded was determined relative to control samples of 0.4 mM PGP alone. PGP degradation was also assessed by measurement of free proline released and its ensuing reaction with Ninhydrin (as discussed below). Test compounds were assayed in a blinded manner by an investigator during determination of the effect on LTA4H aminopeptidase activity.
To assess free proline liberated, aliquots from PGP degradation experiments were diluted 1 in 10 in PBS (to a final volume of 250 μl). Glacial acetic acid (250 μl) was then added, followed by 250 μl of ninhydrin solution (25 mg/ml in acetic acid/6 M phosphoric acid; heated at 70 °C to dissolve). The reaction mixture was heated at 100 °C for 60 minutes, allowed to cool to room temperature and the proline containing fraction extracted with 500 μl of toluene and optical density measured at 520 nm.

[3] = biological target: T3, LTA4H aminopeptidase activity (Ala-p-nitroanilide substrate) (Homo sapiens, UniProt P09960); experiment: LTA4H aminopeptidase activity versus Ala-p-nitroanilide substrate; assay type: biochemical; conditions: in our hands
T3 sequence (P09960 1-611): T2 sequence (P09960 1-611)

[4] = biological target: T3, LTA4H aminopeptidase activity (Ala-p-nitroanilide substrate); design: method as in PMID 21983441; conditions: read-out: AC50 for augmenting aminopeptidase activity; cited from earlier work
logD pH7.4 = assay type: physicochemical; conditions: pH 7.4; read-out: logDpH7.4
Source text: (§3) ARM1 (4-(4-benzylphenyl)-1,3-thiazole-2-amine), compound 11 (7-hydroxy-3-(4-hydroxyphenyl)-4H-chromen-4-one) and compound 13 (7-hydroxy-3-phenyl-4H-chromen-4-one) were all purchased from VitasMLab (Kowloon, Hong Kong). […] All other compounds were custom synthesized by Peakdale Molecular as described in Supplementary Information. ADMET (absorption, distribution, metabolism, and excretion – toxicity) studies were also outsourced to Peakdale Molecular.

[5] = Mouse plasma protein binding; assay type: in vitro ADME
Source text: as §3

[6] = Human plasma protein binding; assay type: in vitro ADME
Source text: as §3

[7] = Mouse liver microsome stability; assay type: in vitro ADME; conditions: liver microsomes
Source text: as §3

[8] = Human liver microsome stability; assay type: in vitro ADME; conditions: liver microsomes
Source text: as §3

[9] = tested on: serum aminopeptidase PGP-degrading activity; experiment: Serum aminopeptidase PGP-degrading activity after oral dosing of mice; assay type: in vivo; conditions: 10 mg/kg orally, naïve female BALB/c mice, blood 4 h after dosing
Procedure: (§4) Blood was obtained from mice 4 h after oral dosing and downstream analysis performed blinded by an independent researcher. […] The reaction was terminated by centrifugation (600 × g, 5 min, 4 °C). Supernatants were analyzed for LTB4 by EIA (see below). To assess inhibition of aminopeptidase activity, PGP degrading capacity of serum was assessed as detailed below. Furthermore, absolute concentrations of PGP in serum was determined as detailed below.
as §2

serum PGP = experiment: Absolute serum PGP concentrations after oral dosing of mice; assay type: in vivo; conditions: 10 mg/kg orally, naïve female BALB/c mice, blood 4 h after dosing
Procedure: as §4, §1

LTB4 generation = conditions: oral administration to naïve mice; cited from earlier work
[10] = LTB4 generation, murine neutrophils, Table 3, read-out: Epoxide Hydrolase IC50 ± SEM
[11] = PGP degradation, Table 3, read-out: Aminopeptidase IC50 ± SEM
[12] = LTB4 generation, murine neutrophils, Table 2, read-out: Epoxide Hydrolase IC50 ± SEM
[13] = PGP degradation, Table 2, read-out: Aminopeptidase IC50 ± SEM
[14] = LTB4 generation, murine neutrophils, Table 1, read-out: Epoxide Hydrolase IC50 ± SEM

SMILES: Cc1ccc2c(=O)c(-c3ccc(O)cc3)coc2c1O [Compound 15]
- IC50 [1, 10]: 1.2 ± 0.21 µM
- IC50 [2, 11]: 69.2 ± 10.9 µM

SMILES: COc1ccc(/C=C/c2cc(OC)cc(OC)c2)cc1 [Compound 3, trans-trismethoxy Resveratrol]
- IC50 [1, 12]: 41.2 ± 5.5 µM
- IC50 [2, 13]: 68.8 ± 9.9 µM

SMILES: Oc1ccc(/C=C\c2cc(O)cc(O)c2)cc1 [Compound 2, cis-Resveratrol]
- IC50 [1, 12]: 14.3 ± 2.1 µM

SMILES: COc1cc(O)cc(/C=C/c2ccc(O)cc2)c1 [Compound 5, 3-[(1E)-2-(4-hydroxyphenyl)ethenyl]-5-methoxyphenol hydrate]
- IC50 [1, 12]: 3.9 ± 0.4 µM
- IC50 [2]: 99.5 ± 22.6 µM

SMILES: O=C(O)CCCN1CCC[C@H]1COc1ccc(Oc2ccc(Cl)cc2)cc1 [DG-051, 4-[(2S)-2-{[4-(4-chlorophenoxy)phenoxy]methyl}-1-pyrrolidinyl]butanoic acid, reference compound]
- IC50 [1, 14]: 0.68 ± 0.01 µM

SMILES: O=c1c(-c2ccccc2)coc2cc(O)ccc12 [Compound 13, 7-hydroxy-3-phenyl-4H-chromen-4-one]
- IC50 [1, 10]: 48.2 ± 14.6 µM
- IC50 [2, 11]: > 100 µM

SMILES: O=c1c(-c2ccc(O)cc2)coc2c3c(ccc12)OCO3 [Compound 14]
- IC50 [1, 10]: 20.6 ± 2.4 µM
- IC50 [2, 11]: 20.6 ± 3.3 µM

SMILES: COc1cc(O)cc(CCc2ccc(O)cc2)c1 [Compound 6]
- IC50 [1, 12]: 6.4 ± 0.7 µM
- IC50 [2, 13]: > 100 µM

SMILES: COc1ccc(Cc2ccccc2)cc1 [Compound 4-MDM, 4-Methoxydiphenylmethane, reference compound]
- IC50 [1, 14]: 48.9 µM
- IC50 ([2]; PGP degradation, recombinant LTA4H, Table 1, read-out: Aminopeptidase IC50 ± SEM): 75.2 µM
- effect on aminopeptidase activity with physiological substrate PGP ([2]; PGP substrate): modest inhibition; also recorded: failed to augment PGP degradation
- effect on aminopeptidase activity versus Ala-p-nitroanilide substrate [3]: did promote aminopeptidase activity
- AC50 [4]: 50 µM

SMILES: O=c1c(-c2ccc(O)cc2)coc2c(O)c(O)ccc12 [Compound 12, 7,8,4′-trihydroxyisoflavone]
- IC50 [1, 10]: 7.3 ± 0.8 µM
- selectivity for hydrolase over peptidase inhibition ([1]; ratio of aminopeptidase to epoxide hydrolase IC50): > 8 fold
- IC50 [2, 11]: 62.7 ± 13.3 µM
- logD (logD pH7.4): 1.24 ± 0.06
- fraction unbound [5]: 0.0723
- fraction unbound [6]: 0.0326
- microsomal CLint [7]: 8.9 ± 0.7 µL/min/mg
- half-life ([7]; read-out: Mouse liver microsomes t1/2): 1.3 ± 0.102 h
- microsomal CLint [8]: < 5 µL/min/mg
- half-life ([8]; read-out: Human liver microsomes t1/2): > 2.32 h

SMILES: CN(CCCOc1ccc(Cc2ccccc2)cc1)CCC(=O)O.Cl [SC57461A, 3-[methyl[3-[4-(phenylmethyl)phenoxy]propyl]amino]propanoic acid HCl]
- IC50 [1, 14]: 0.11 ± 0.0235 µM
- serum aminopeptidase PGP-degrading activity [9]: potently abrogates; also recorded: potently inhibited
- serum PGP (serum PGP): serum accumulation of PGP
- inhibition of LTB4 generation in ex vivo whole blood assay (LTB4 generation): potent inhibition

SMILES: O=C(Cc1ccc(O)cc1)c1ccc(O)cc1O [Compound 10, 1-(2,4-Dihydroxyphenyl)-2-(4-hydroxyphenyl)ethanone]
- IC50 [1, 10]: 34.2 ± 4.7 µM
- IC50 [2, 11]: > 100 µM

SMILES: COc1cc(O)cc(CCc2cccc(O)c2)c1 [Compound 8]
- IC50 [1, 12]: 1.7 ± 0.25 µM
- IC50 [2, 13]: > 100 µM

SMILES: CC(=O)NC1CC2CCC(C1)N2Cc1ccc(Oc2nc3ncccc3s2)cc1 (stereo not drawn) [JNJ-40929837]
- IC50 [1]: 0.009 ± 9e-05 µM
- IC50 [2]: 0.0094 ± 0.0013 µM
- serum aminopeptidase PGP-degrading activity [9]: potently abrogates; also recorded: potently inhibited
- serum PGP (serum PGP): serum accumulation of PGP

SMILES: CCOc1cc(O)cc(CCc2ccc(O)cc2)c1 [Compound 7]
- IC50 [1, 12]: 3.2 ± 0.7 µM
- IC50 [2, 13]: > 100 µM

SMILES: CC(=O)Oc1ccc(/C=C/c2cc(OC(C)=O)cc(OC(C)=O)c2)cc1 [Compound 4, 5-[(1E)-2-[4-(acetyloxy)phenyl]ethenyl]-1,3-Benzenediol-1,3-diacetate]
- IC50 [1]: 38.6 ± 5.9 µM
- IC50 [2, 13]: > 100 µM
